According to patent US8290713B2, “Method for predicting protein aggregation and designing aggregation inhibitors” (Lonza Biologics PLLC, priority 2006, dated 2012):

Molecular target: ASYN (α-synuclein) (Homo sapiens, UniProt P37840)
Test: ASYN aggregation assay in TBS monitored by thioflavin T fluorescence
Assay type: biochemical
Details: 50 μM ASYN, 100 μM inhibitor, 50 mM tris, 150 mM NaCl, 20 μM Thioflavin T, 37 C with shaking, 48 hours; sigmoidal fit
Experimental: All peptides were tested for inhibition of ASYN aggregation in TBS by carrying out aggregation assays with 50 μM ASYN and 100 μM inhibitor with 50 mM tris and 150 mM NaCl and 20 μM Thioflavin T. The reaction volume was 200 μL. Each reaction was set up in a 96 well polypropylene plate with ASYN only and buffer only controls. The reactions were incubated at 37 C with shaking for 48 hours and aggregation was monitored by reading thioflavin T fluorescence.
The kinetic traces were fitted using Zyentiafit software which fits the data to a Sigmoidal function f(x)=k+A/(1+exp(−b(t−t0))) from which the lag time, rate of aggregation and total change in ThT fluorescence may be calculated.

Ac-hpviva-NH2 [ZP-0164] was tested, and the “% decrease in ThT fluorescence” value was 3.7%, the “% decrease in rate of aggregation” value was −2.3% and the “% increase in Lag phase” value was 43.0%.
